We go through four compounds from US9232796B2, “Herbicidal compositions comprising 4-amino-3-chloro-5-fluoro-6-(4-chloro-2-fluoro-3-methoxyphenyl) pyridine-2-carboxylic acid or a derivative thereof and acetyl-CoA carboxylase (ACCase) inhibitors” (DOW AGROSCIENCES LLC, priority 2012, dated 2016).

Where “and” joins values, the source holds several entries; their conditions need not be identical. Equal values may be shown once.

Test [1] relates to ECHOR. Briefly: Example V (second) postemergence foliar-applied ternary mixtures, greenhouse, direct seeded rice weeds. Type of test: in vivo, Echinochloa oryzoides (Ard.) Fritsch. The protocol: Seeds or nutlets of the desired test plant species were planted in a soil matrix prepared by mixing a sandy loam or loam soil (e.g., 32 percent silt, 23 percent clay, and 45 percent sand, with a pH of about 6.5 and an organic matter content of about 1.9 percent) and calcareous grit in an 80 to 20 ratio. The soil matrix was contained in plastic pots with a volume of 1 quart and a surface area of 83.6 square centimeters (cm^2). […] The plants were grown for 8-22 days in a greenhouse with an approximate 14 hr. photoperiod which was maintained at about 29° C. during the day and 26° C. during the night. Nutrients (Peters Excel® 15-5-15 5-Ca 2-Mg and iron chelate) were applied in the irrigation solution as needed and water was added on a regular basis. Supplemental lighting was provided with overhead metal halide 1000-Watt lamps as necessary. The plants were employed for testing when they reached the first through fourth true leaf stage.
Treatments consisted of the benzyl ester of 4-amino-3-chloro-5-fluoro-6-(4-chloro-2-fluoro-3-methoxy-phenyl)pyridine-2-carboxylic acid (Compound A), formulated as an SC (suspension concentrate), an ACCase inhibitor, and a third herbicidal component, each applied alone and in ternary combination. Forms of compound A were applied on an acid equivalent basis.
For treatments comprised of formulated compounds, measured amounts of compounds were placed individually in 25 mL glass vials and diluted in a volume of 1.25% (v/v) Agri-Dex® crop oil concentrate to obtain 12× stock solutions. […] Application solutions were prepared by adding an appropriate amount of each stock solution (e.g., 1 mL) and diluted to the appropriate final concentrations with the addition of 9 mL of an aqueous mixture of 1.25% (v/v) crop oil concentrate so that the final spray solutions contained 1.25% (v/v) crop oil concentrate.
As required, additional water and/or 97:3 v/v acetone/DMSO was added to individual application solutions so that the final acetone and DMSO concentrations of the application solutions being compared were 8.1% and 0.25%, respectively.
All stock solutions and applications solutions were visually inspected for compound compatibility prior to application. Spray solutions were applied to the plant material with an overhead Mandel track sprayer equipped with a 8002E nozzles calibrated to deliver 187 L/ha over an application area of 0.503 m^2 at a spray height of 18 inches (46 cm) above average plant canopy height. Control plants were sprayed in the same manner with the solvent blank.
(§1) The treated plants and control plants were placed in a greenhouse as described above and watered by sub-irrigation to prevent wash-off of the test compounds. After approximately 3 weeks, the condition of the test plants as compared with that of the untreated plants was determined visually and scored on a scale of 0 to 100 percent where 0 corresponds to no injury or growth inhibition and 100 corresponds to complete kill.
(§2) Colby's equation was used to determine the herbicidal effects expected from the mixtures (Colby, S. R. 1967. Calculation of the synergistic and antagonistic response of herbicide combinations. Weeds 15:20-22.).
(§3) The following equation was used to calculate the expected activity of mixtures containing three active ingredients, A, B, and C: Expected=A+B+C−((A×B+A×C+B×C)/100)+(A×B×C/10000)

Test [2] concerns CYPIR. Described as above. The format is in vivo, Cyperus iria L. How it is done:
as §1, §2, §3

The test system of test [3] is ISCRU. Put plainly: Example I postemergence foliar-applied, greenhouse, direct seeded rice weeds. Type of test: in vivo, Ischaemum rugosum Salisb. An excerpt:
(§4) Seeds or nutlets of the desired test plant species were planted in a soil matrix prepared by mixing a loam or sandy loam soil (e.g., 28.6 percent silt, 18.8 percent clay, and 52.6 percent sand, with a pH of about 5.8 and an organic matter content of about 1.8 percent) and calcareous grit in an 80 to 20 ratio. The soil matrix was contained in plastic pots with a volume of 1 quart and a surface area of 83.6 square centimeters (cm^2). When required to ensure good germination and healthy plants, a fungicide treatment and/or other chemical or physical treatment was applied. The plants were grown for 8-22 days in a greenhouse with an approximate 14 hr. photoperiod which was maintained at about 29° C. during the day and 26° C. during the night. Nutrients (Peters Excel® 15-5-15 5-Ca 2-Mg and iron chelate) were applied in the irrigation solution as needed and water was added on a regular basis. Supplemental lighting was provided with overhead metal halide 1000-Watt lamps as necessary. The plants were employed for testing when they reached the first through fourth true leaf stage.
(§5) Treatments consisted of the acid or esters of 4-amino-3-chloro-5-fluoro-6-(4-chloro-2-fluoro-3-methoxy-phenyl)pyridine-2-carboxylic acid (Compound A), each formulated as an SC (suspension concentrate), and various herbicidal components alone and in combination.
(§6) Other herbicidal components were applied on an acid equivalent (ae) or active ingredient (ai) basis and included acetyl coA carboxylase (ACCase)-inhibiting herbicides (cyclohexanedione and aryloxyphenoxypropionate chemical classes) cyhalofop-butyl formulated as Clincher® SF (285 gr ai/L EC), diclofop-methyl formulated as Hoelon® 3EC, fenoxaprop-p-ethyl+isoxadifen-ethyl formulated as RiceStar® HT (0.58 lb./gal EC), fenoxaprop-p-ethyl+mefenpyr diethyl formulated as Puma® IEC, metamifop formulated as Metamifop EC, haloxyfop-methyl formulated as Gallant Super®, fluazifop-p-butyl formulated as Fusilade® DX, quizalofop-p-ethyl formulated as Assure® II, profoxydim formulated as Aura® 20EC, clethodim applied as Intensity®, sethoxydim formulated as Poast®, and tralkoxydim formulated as Achieve®.
(§7) Treatment requirements were calculated based upon the rates being tested, the concentration of active ingredient or acid equivalent in the formulation, and a 12 mL application volume at a rate of 187 L/ha.
(§8) For treatments comprised of formulated compounds, measured amounts of compounds were placed individually in 25 mL glass vials and diluted in a volume of 1.25% (v/v) Agri-Dex® crop oil concentrated to obtain 12× stock solutions. […] Application solutions were prepared by adding an appropriate amount of each stock solution (e.g., 1 mL) and diluted to the appropriate final concentrations with the addition of 10 mL of an aqueous mixture of 1.25% (v/v) crop oil concentrate so that the final spray solutions contained 1.25+/−0.05% (v/v) crop oil concentrate.
All stock solutions and applications solutions were visually inspected for compound compatibility prior to application. […]
(§9) The treated plants and control plants were placed in a greenhouse as described above and watered by sub-irrigation to prevent wash-off of the test compounds. After approximately 3 weeks, the condition of the test plants as compared with that of the untreated plants was determined visually and scored on a scale of 0 to 100 percent where 0 corresponds to no injury or growth inhibition and 100 corresponds to complete kill. […]

The test system of test [4] is ECHCO. The description is as above. The format is in vivo, Echinochloa colona (L.) Link.
Text: as §4, §5, §6, §7, §8
All stock solutions and applications solutions were visually inspected for compound compatibility prior to application. Spray solutions were applied to the plant material with an overhead Mandel track sprayer equipped with a 8002E nozzles calibrated to deliver 187 L/ha over an application area of 0.503 m^2 at a spray height of 18 to 20 inches (46 to 50 cm) above average plant canopy height. Control plants were sprayed in the same manner with the solvent blank.
as §9

With `CCCCOC(=O)[C@@H](C)Oc1ccc(Oc2ccc(C#N)cc2F)cc1` [Cyhalofop-butyl, butyl(2R)-2-[4-(4-cyano-2-fluorophenoxy)phenoxy]propanoate, reference compound], in test [1] (17.5 gai/ha), the “Visual Weed Control (%)- 22 DAA ECHOR Obs” value was determined as 0%. In test [1] (35 gai/ha), the “Visual Weed Control (%) - 22 DAA ECHOR Obs” value came out at 15% and the “Visual Weed Control (%)- 22 DAA ECHOR Obs” value came out at 15%. Further, the “Visual Weed Control (%) - 21 DAA CYPIR Obs” value in test [2] (35 gai/ha) was determined as 0%. The “Visual Weed Control (%) - 26 DAA ISCRU Obs” value in test [3] (140 gai/ha) was 10%.
`COc1c(Cl)ccc(-c2nc(C(=O)O)c(Cl)c(N)c2F)c1F` [Compound A Acid, 4-amino-3-chloro-6-(4-chloro-2-fluoro-3-methoxyphenyl)-5-fluoropyridine-2-carboxylic acid]: the “Visual Weed Control (%) - 20 DAA ECHCO Obs” value turned out to be 40% in test [4] (4.38 gae/ha), 60% in test [4] (8.75 gae/ha) and 85% in test [4] (17.5 gae/ha). Besides, the “Visual Weed Control (%) - 26 DAA ISCRU Obs” value in test [3] (8.75 gae/ha) came out at 37%; in test [3] (17.5 gae/ha) it was 63%.
Take `COc1c(Cl)ccc(-c2nc(C(=O)OCc3ccccc3)c(Cl)c(N)c2F)c1F` [Compound A Benzyl Ester, benzyl ester of 4-amino-3-chloro-5-fluoro-6-(4-chloro-2-fluoro-3-methoxy-phenyl)pyridine-2-carboxylic acid]: the “Visual Weed Control (%) - 22 DAA ECHOR Obs” value in test [1] (8 gae/ha) was 13% and 25%; in test [1] (16 gae/ha), 35%. In addition, the figures for the “Visual Weed Control (%)- 22 DAA ECHOR Obs” value in test [1] (8 gae/ha) and in test [1] (16 gae/ha) were 13% and 40%, respectively. Besides, the “Visual Weed Control (%) - 21 DAA ECHCO Obs” value in test [4] (8 gae/ha) stood at 40%; in test [4] (16 gae/ha), 70%; in test [4] (32 gae/ha), 95%. In addition, the figures for the “Visual Weed Control (%) - 21 DAA CYPIR Obs” value in test [2] (8 gae/ha) and in test [2] (16 gae/ha) were 53% and 95%, respectively. For the same compound, the “Visual Weed Control (%) - 22 DAA CYPIR Obs” value in test [2] (8 gae/ha) was 37%. Moreover, the entries for the “Visual Weed Control (%) - 26 DAA ISCRU Obs” value in test [3] (8.75 gae/ha) and in test [3] (17.5 gae/ha) were 18% and 33%, respectively.
Consider `CCC/C(=N\OCC(C)Oc1ccc(Cl)cc1)C1=C(O)CC(C2CCCSC2)CC1=O` (centres unmarked) [Profoxydim, 2-[1-[[2-(4-chlorophenoxy)propoxy]imino]butyl]-3-hydroxy-5-(tetrahydro-2H-thiopyran-3-yl)-2-cyclohexen-1-one, reference compound], for which the “Visual Weed Control (%) - 22 DAA ECHOR Obs” value in test [1] (3.12 gai/ha) turned out to be 0%. The “Visual Weed Control (%) - 20 DAA ECHCO Obs” value in test [4] (12.5 gai/ha) was found to be 70%. Further, the “Visual Weed Control (%) - 22 DAA CYPIR Obs” value in test [2] (3.12 gai/ha) and in test [2] (6.25 gai/ha) was 0% in each case.
